Values joined by “and” are separate entries in the source; they are usually repeats but may differ in a detail not shown here. Equal entries are not always repeated. Where two headings read alike, the source gives them in different places.
What was measured:
ROCK2 = ROCK2 (Homo sapiens (Human), UniProt O75116); assay: ROCK assay (peptide substrate phosphorylation, LABCHIP 3000 Reader); assay type: biochemical
Summary of the method: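 Rho kinase variants started the reaction with compound present (DMSO <2%); after incubation, EDTA stop, and phosphorylated and non-phosphorylated peptide separated by microfluidic electrophoresis. Dose-response format, inhibition calculated at each concentration.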

Dahl salt-sensitive rats = settings: rat, in vivo; cited from earlier work
[1] = system: spontaneously hypertensive rat, renal hypertensive rat and deoxycortisone acetate salt hypertensive rat models; settings: cited from earlier work
[2] = system: neointimal formation in rats; settings: balloon injury model; cited from earlier work
[3] = system: IL-1 beta-induced coronary stenosis; settings: long term treatment; cited from earlier work
rat stroke model = settings: in vivo; cited from earlier work
[4] = 5 μM ATP, 1.5 μM peptide substrate

ROCK2, sequence (O75116 whole entry, species assumed): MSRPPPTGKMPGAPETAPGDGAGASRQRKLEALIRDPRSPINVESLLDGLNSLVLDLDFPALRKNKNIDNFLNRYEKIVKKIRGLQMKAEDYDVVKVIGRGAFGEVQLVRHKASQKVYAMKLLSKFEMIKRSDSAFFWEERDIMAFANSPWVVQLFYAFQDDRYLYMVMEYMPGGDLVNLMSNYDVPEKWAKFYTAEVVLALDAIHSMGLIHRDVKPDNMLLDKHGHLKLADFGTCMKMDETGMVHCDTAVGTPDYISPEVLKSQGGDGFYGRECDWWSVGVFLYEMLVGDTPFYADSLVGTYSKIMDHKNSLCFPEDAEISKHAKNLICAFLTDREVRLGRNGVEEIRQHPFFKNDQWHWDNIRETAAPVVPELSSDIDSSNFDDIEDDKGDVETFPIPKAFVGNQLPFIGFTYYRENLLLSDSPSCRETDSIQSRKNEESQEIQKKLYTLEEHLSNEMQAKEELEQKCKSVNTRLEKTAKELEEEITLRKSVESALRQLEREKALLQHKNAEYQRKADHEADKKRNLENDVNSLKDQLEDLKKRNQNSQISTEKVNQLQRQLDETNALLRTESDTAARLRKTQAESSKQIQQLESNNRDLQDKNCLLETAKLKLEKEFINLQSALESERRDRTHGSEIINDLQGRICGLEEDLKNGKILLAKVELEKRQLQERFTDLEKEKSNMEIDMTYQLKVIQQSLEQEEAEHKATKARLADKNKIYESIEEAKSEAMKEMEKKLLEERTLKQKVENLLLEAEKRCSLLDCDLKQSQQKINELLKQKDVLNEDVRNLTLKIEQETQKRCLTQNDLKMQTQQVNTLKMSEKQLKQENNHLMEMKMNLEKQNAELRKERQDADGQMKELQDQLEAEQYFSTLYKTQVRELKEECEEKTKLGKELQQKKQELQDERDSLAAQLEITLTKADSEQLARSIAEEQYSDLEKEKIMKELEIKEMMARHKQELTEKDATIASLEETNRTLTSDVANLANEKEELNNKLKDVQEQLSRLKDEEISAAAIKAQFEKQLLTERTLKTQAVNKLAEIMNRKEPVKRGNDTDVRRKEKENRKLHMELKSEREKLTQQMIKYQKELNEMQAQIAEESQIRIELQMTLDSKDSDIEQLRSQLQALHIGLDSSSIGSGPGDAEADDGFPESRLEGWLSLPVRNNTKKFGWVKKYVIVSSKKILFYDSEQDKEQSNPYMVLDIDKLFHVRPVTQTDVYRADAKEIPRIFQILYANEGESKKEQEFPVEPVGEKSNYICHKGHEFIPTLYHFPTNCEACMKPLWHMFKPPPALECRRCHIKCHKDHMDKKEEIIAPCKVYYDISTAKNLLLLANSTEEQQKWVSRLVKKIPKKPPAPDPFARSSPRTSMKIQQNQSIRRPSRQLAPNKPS

| Compound | IC50 (ROCK2; [4]) | further results |
| --- | --- | --- |
| COc1cc(C(=O)N2CC(O)C[C@@H]2c2cccc(S(C)(=O)=O)c2)ccc1-c1cn[nH]c1 (stereo partly drawn) [Example 90, (5R)-5-(3-Methanesulfonylphenyl)-1-[3-methoxy-4-(1H-pyrazol-4-yl)benzoyl]pyrrolidin-3-ol] | 86 nM | – |
| O=C(c1ccc(-c2cn[nH]c2)c(OC(F)F)c1)N1C[C@@H](O)C[C@@H]1c1ccccc1F [Example 95, (3S,5R)-1-[3-(Difluoromethoxy)-4-(1H-pyrazol-4-yl)benzoyl]-5-(2-fluorophenyl)pyrrolidin-3-ol] | 44.1 nM and 28.4 nM | – |
| N#Cc1cc(C(=O)N2C[C@H](O)C[C@@H]2c2ccccc2F)ccc1-c1cn[nH]c1 [Example 96, 5-[(2R,4R)-2-(2-Fluorophenyl)-4-hydroxypyrrolidine-1-carbonyl]-2-(1H-pyrazol-4-yl)benzonitrile] | – | IC50 (ROCK2): 667 nM |
| N#Cc1cc(C(=O)N2C[C@H](O)C[C@@H]2c2ccccc2F)ccc1-c1cn[nH]c1 [Example 97, 5-[(2R)-2-(2-Fluorophenyl)-4-hydroxypyrrolidine-1-carbonyl]-2-(1H-pyrazol-4-yl)benzonitrile] | 721 nM | – |
| COc1cc(-c2cn[nH]c2)ccc1C(=O)N1C[C@H](O)C[C@@H]1c1ccccc1F [Example 98, (3R,5R)-5-(2-Fluorophenyl)-1-[2-methoxy-4-(1H-pyrazol-4-yl)benzoyl] pyrrolidin-3-ol] | 723 nM | – |
| CS(=O)(=O)c1cccc([C@H]2CC(O)CN2C(=O)c2ccc(-c3ccnc4[nH]ccc34)cc2)c1 (stereo partly drawn) [Example 99, (5R)-5-(3-methanesulfonyl-phenyl)-1-(4-{1H-pyrrolo [2,3-b]pyridin-4-yl}benzoyl) pyrrolidin-3-ol] | 614 nM | – |
| COc1cccc(C2CCCN2C(=O)c2ccc(-c3cn[nH]c3)c(C(C)O)c2)c1 (centres unmarked) [Example 100, 1-{5-[2-(3-Methoxyphenyl)pyrrolidine-1-carbonyl]-2-(1H-pyrazol-4-yl)phenyl}ethan-1-ol] | 228 nM | – |
| COc1cc(C(=O)N2CCCC2c2cccc(OCC(F)F)c2)ccc1-c1cn[nH]c1 (centres unmarked) [Example 102, 4-(4-{2-[3-(2,2-Difluoroethoxy)phenyl]pyrrolidine-1-carbonyl}-2-methoxyphenyl)-1H-pyrazole] | 411 nM | – |
| COc1cc(C(=O)N2CCCC2c2cccc(OC3CCN(C)CC3)c2)ccc1-c1cn[nH]c1 (centres unmarked) [Example 104, 4-(3-{1-[3-Methoxy-4-(1H-pyrazol-4-yl)benzoyl]pyrrolidin-2-yl}phenoxy)-1-methylpiperidine] | 1390 nM | – |
| COc1cc(C(=O)N2CCCC2c2cccc(NC3CCN(C)CC3)c2)ccc1-c1cn[nH]c1 (centres unmarked) [Example 105, N-(3-{1-[3-Methoxy-4-(1H-pyrazol-4-yl)benzoyl]pyrrolidin-2-yl}phenyl)-1-methylpiperidin-4-amine] | 278 nM | – |
| COc1cc(C(=O)N2CC(O)C[C@@H]2c2ccc3c(I)n[nH]c3c2)ccc1-c1cn[nH]c1 (stereo partly drawn) [Example 109, (5R)-5-(3-Iodo-1H-indazol-6-yl)-1-[3-methoxy-4-(1H-pyrazol-4-yl)benzoyl]pyrrolidin-3-ol] | 902 nM | – |
| COc1cc(C(=O)N2CCC[C@@H]2C(=O)Nc2ccccc2)ccc1-c1cn[nH]c1 [Example 110, (2R)-1-[3-Methoxy-4-(1H-pyrazol-4-yl)benzoyl]-N-phenylpyrrolidine-2-carboxamide] | 463 nM | – |
| COc1cc(C(=O)N2CCC[C@@H]2C(=O)N2CCc3ccccc32)ccc1-c1cn[nH]c1 [Example 111, 1-[(2R)-1-[3-Methoxy-4-(1H-pyrazol-4-yl)benzoyl]pyrrolidine-2-carbonyl]-2,3-dihydro-1H-indole] | – | IC50 (ROCK2): 504 nM |
| C[C@@H](N)[C@H]1CC[C@H](C(=O)Nc2ccncc2)CC1 [Example Y-27632, Y-27632] | – | ventricular hypertrophy, fibrosis and function (Dahl salt-sensitive rats): improve ventricular hypertrophy, fibrosis and function; blood pressure ([1]; control rats): only a minor effect on blood pressure; blood pressure ([1]; three rat models of hypertension): significantly decrease blood pressure; neointimal formation [2]: inhibited neointimal formation |
| O=S(=O)(c1cccc2cnccc12)N1CCCNCC1 [fasudil] | – | coronary constrictive remodeling [3]: promote a regression of coronary constrictive remodeling; coronary stenosis [3]: progressively reduce coronary stenosis; infarct size and neurologic deficit (rat stroke model): reduce both the infarct size and neurologic deficit |

Second part, led by results:

| IC50 (ROCK2; [4]) | Compound | further results |
| --- | --- | --- |
| 8.03 nM | COc1cc(C(=O)N2C[C@H](O)C[C@@H]2c2ccccc2F)ccc1-c1cn[nH]c1 [Example 92, (3R,5R)-5-(2-Fluorophenyl)-1-[3-methoxy-4-(1H-pyrazol-4-yl)benzoyl] pyrrolidin-3-ol] | – |
| 4.52 nM | COc1cc(C(=O)N2C[C@@H](O)C[C@@H]2c2ccccc2F)ccc1-c1cn[nH]c1 [Example 93, (3S,5R)-5-(2-Fluorophenyl)-1-[3-methoxy-4-(1H-pyrazol-4-yl)benzoyl] pyrrolidin-3-ol] | – |
| 73.3 nM | O=C(c1ccc(-c2cn[nH]c2)c(OC(F)F)c1)N1C[C@H](O)C[C@@H]1c1ccccc1F [Example 94, (3R,5R)-1-[3-(Difluoromethoxy)-4-(1H-pyrazol-4-yl)benzoyl]-5-(2-fluorophenyl)pyrrolidin-3-ol] | – |
| 65.1 nM | CCc1cc(C(=O)N2CC(O)C[C@@H]2c2ccccc2F)ccc1-c1cn[nH]c1 (stereo partly drawn) [Example 101, (5R)-1-[3-Ethyl-4-(1H-pyrazol-4-yl)benzoyl]-5-(2-fluorophenyl) pyrrolidin-3-ol] | – |
| 62 nM | COc1cc(C(=O)N2CCCC2c2cccc(OCc3cc(C)on3)c2)ccc1-c1cn[nH]c1 (centres unmarked) [Example 103, 3-(3-{1-[3-Methoxy-4-(1H-pyrazol-4-yl)benzoyl]pyrrolidin-2-yl}phenoxymethyl)-5-methyl-1,2-oxazole] | – |
| 0.87 nM | COc1cc(C(=O)N2C[C@@H](N)C[C@@H]2c2ccccc2F)ccc1-c1cn[nH]c1 [Example 106, (3S,5R)-5-(2-Fluorophenyl)-1-[3-methoxy-4-(1H-pyrazol-4-yl)benzoyl] pyrrolidin-3-amine] | – |
| 1.65 nM | COc1cc(C(=O)N2C[C@H](N)C[C@@H]2c2ccccc2F)ccc1-c1cn[nH]c1 [Example 107, (3R,5R)-5-(2-Fluorophenyl)-1-[3-methoxy-4-(1H-pyrazol-4-yl)benzoyl] pyrrolidin-3-amine] | – |
| 7.65 nM | COc1cc(C(=O)N2CC(O)C[C@@H]2c2ccc3cn[nH]c3c2)ccc1-c1cn[nH]c1 (stereo partly drawn) [Example 108, (5R)-5-(1H-Indazol-6-yl)-1-[3-methoxy-4-(1H-pyrazol-4-yl)benzoyl] pyrrolidin-3-ol] | – |
| 15.2 nM | CCNS(=O)(=O)c1cccc([C@H]2CCCN2C(=O)c2ccc(-c3cn[nH]c3)c(OC)c2)c1 [Example 112, N-Ethyl-3-[(2R)-1-[3-methoxy-4-(1H-pyrazol-4-yl)benzoyl]pyrrolidin-2-yl]benzene-1-sulfonamide] | – |

— patent publication US10112939B2, “Tied-back benzamide derivatives as potent rock inhibitors” (Bristol-Myers Squibb Company, priority 2014, dated 2018)
